For experiment [1], the system named is ULK kinase. Nature of the experiment: pATG13 levels of mutant KRas MiaPaCa-2 cells after treatment with ULK inhibitors in combination with trametinib (ELISA). In kind it is cell-based, human. Particulars: MiaPaCa-2 pancreatic cancer cells, 250 nM trametinib, overnight, pS318-ATG13. The method in brief: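 MiaPaCa-2 cells in DMEM with 10% FBS and 2.5% horse serum were pretreated with trametinib or DMSO, then given a test-compound dose response overnight at 37° C. Lysates were assayed for phospho-ATG13 by ELISA (A450 minus A540 background, blank-corrected). % phosphorylation was calculated relative to controls and fitted to IC50.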
(In general: ELISA stands for enzyme-linked immunosorbent assay.)

Experiment [2] has as its system ULK kinase. Nature of the experiment: pATG13 levels of mutant HRas T24 cells after treatment with ULK inhibitors in combination with trametinib (ELISA). It counts as cell-based, human. Particulars: T24 urinary bladder cancer cells (mutant HRas), 250 nM trametinib, overnight, pS318-ATG13. On the procedure:
T24 human urinary bladder cancer cells (25000 cells/well) were added to a 96-well tissue-culture treated plate in 100 μL of pre-warmed DMEM medium supplemented with 10% characterized fetal bovine serum (Invitrogen, Carlsbad, Calif.), 100 units/mL penicillin G, and 100 μg/mL streptomycin and allowed to grow overnight at 37° C., 5% CO2, and 95% humidity. The following day, 100 μL of media containing trametinib or DMSO as a control was added to wells. […] A dose response of a test compound (0.5 μL per well) was added. DMSO (0.5 μL) was added to control wells. The plate was briefly shaken to mix wells and then incubated at 37° C. overnight. The next day, the media was aspirated and cells were washed with Dulbecco's Phosphate Buffered Saline (Gibco). Cells were lysed using MPER lysis buffer (Pierce, Rockford, Ill.) containing Halt Phosphatase and Protease Inhibitors (Pierce, Rockford, Ill.) and Phosphatase inhibitor cocktail 2 (Sigma, St. Louis, Mo.) at 4° C. for 10 minutes with shaking.
Plate wells were washed with ELISA wash buffer. Cell lysate was added to wells and incubated at room temperature for 2 hours. Plate wells were washed with ELISA wash buffer. […] Plate wells were washed with ELISA wash buffer. […] Plate wells were washed with ELISA wash buffer. […] The reaction was stopped with 2N Sulfuric Acid. The plate was analyzed at on a plate reader measuring absorbance at 450 nm and 540 nm (background). Signal was calculated by first subtracting the background absorbance at 540 nm from the absorbance at 450 nm for each well. Next, the background corrected absorbance at 450 nm from blank wells was subtracted from test wells. Data was compared to control wells to determine % ATG13 phosphorylation. GraphPad Prism was used to calculate IC50 values.

The test system of experiment [3] is ULK kinase. Nature of the experiment: pATG13 levels of mutant KRas A549 cells after treatment with ULK inhibitors in combination with trametinib (ELISA). In kind it is cell-based, human. To be noted: A549 (KRAS mutant) lung cancer cells, 250 nM trametinib, overnight, pS318-ATG13. The method in brief: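 Lysates with phosphatase/protease inhibitors assayed by pATG13 ELISA, A450 minus A540 background and blank-corrected. % ATG13 phosphorylation versus DMSO controls fitted to IC50.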

Another experiment has as its target T1, LRRK2 kinase (Homo sapiens, UniProt Q5S007).
T1 construct: purchased Thermo Fisher
Nature of the experiment: Biochemical assay for LRRK2 (coupled pyruvate kinase/lactate dehydrogenase assay). To be noted: 26.4 nM LRRK2 (residues 970-2528), peptide substrate, 1 mM ATP. The method in brief: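 Recombinant LRRK2 (26.4 nM) with 0.1 mM peptide substrate and 1 mM ATP in Tris pH 7.5/MgCl2 buffer; ADP production coupled via PK/LDH to NADH oxidation, A340 read continuously 6 h at 30 °C. Rates from 2–3 h window converted to % inhibition versus no-compound and reference-inhibitor controls; IC50 fitted.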

SMILES strings stand for the structures.

T1 sequence (Q5S007 with tags, fused parts or gaps): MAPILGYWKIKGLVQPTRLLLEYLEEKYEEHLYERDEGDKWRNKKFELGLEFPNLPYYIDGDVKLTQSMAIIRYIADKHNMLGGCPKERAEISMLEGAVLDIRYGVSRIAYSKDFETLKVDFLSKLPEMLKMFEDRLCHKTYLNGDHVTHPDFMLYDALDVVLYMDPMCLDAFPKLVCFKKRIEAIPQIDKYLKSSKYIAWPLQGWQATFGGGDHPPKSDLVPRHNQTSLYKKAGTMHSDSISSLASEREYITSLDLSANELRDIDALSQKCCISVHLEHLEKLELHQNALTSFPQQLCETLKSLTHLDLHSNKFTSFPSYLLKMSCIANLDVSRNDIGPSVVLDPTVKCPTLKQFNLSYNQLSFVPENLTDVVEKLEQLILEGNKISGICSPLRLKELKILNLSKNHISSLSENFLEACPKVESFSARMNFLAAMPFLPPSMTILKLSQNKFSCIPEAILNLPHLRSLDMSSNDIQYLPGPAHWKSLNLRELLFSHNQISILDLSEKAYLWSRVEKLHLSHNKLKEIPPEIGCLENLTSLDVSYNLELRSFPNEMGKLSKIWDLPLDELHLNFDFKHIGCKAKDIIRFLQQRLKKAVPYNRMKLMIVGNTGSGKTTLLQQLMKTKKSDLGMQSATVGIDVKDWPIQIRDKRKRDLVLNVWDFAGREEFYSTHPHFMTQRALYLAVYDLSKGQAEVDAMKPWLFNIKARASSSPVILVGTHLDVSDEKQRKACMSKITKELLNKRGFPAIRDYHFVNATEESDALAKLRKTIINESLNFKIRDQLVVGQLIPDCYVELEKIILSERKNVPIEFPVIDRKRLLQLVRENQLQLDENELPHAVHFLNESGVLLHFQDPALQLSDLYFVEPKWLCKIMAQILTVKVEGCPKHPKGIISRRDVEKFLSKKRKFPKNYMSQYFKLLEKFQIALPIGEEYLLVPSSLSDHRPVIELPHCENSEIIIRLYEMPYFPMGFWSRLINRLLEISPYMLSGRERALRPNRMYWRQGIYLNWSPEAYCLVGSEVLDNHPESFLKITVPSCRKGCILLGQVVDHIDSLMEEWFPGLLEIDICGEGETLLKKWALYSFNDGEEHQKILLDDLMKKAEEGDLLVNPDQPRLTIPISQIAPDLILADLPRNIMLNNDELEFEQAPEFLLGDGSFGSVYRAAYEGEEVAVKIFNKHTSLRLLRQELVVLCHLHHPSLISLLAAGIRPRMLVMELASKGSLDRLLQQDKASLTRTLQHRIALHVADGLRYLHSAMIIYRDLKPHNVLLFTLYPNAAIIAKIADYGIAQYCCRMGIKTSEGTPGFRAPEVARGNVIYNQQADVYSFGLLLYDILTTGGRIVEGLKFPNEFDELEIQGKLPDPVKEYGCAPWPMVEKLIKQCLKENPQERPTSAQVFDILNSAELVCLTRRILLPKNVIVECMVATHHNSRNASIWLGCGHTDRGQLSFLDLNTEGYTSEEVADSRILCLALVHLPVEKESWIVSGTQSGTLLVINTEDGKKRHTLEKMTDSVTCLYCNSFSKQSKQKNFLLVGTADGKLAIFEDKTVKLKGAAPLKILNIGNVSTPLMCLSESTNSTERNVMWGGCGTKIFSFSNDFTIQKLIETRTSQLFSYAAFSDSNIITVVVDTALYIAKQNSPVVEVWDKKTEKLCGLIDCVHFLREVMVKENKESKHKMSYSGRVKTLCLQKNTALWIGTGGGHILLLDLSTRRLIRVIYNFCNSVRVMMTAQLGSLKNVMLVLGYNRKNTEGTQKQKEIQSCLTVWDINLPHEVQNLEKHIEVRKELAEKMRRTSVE

In general, IC50 refers to the concentration that inhibits the measured activity by half. With `CCc1cc(N2CCN(C)CC2)ccc1Nc1ncc(Br)c(NCCCN2CCOCCC2=O)n1` [Example 76], the IC50 was 10 to 100 nM in the experiment on ULK kinase [1], 10 to 100 nM with ULK kinase [2], 10 to 100 nM in the experiment on ULK kinase [3] and 100 to 300 nM on LRRK2 kinase.

Consider `CCc1cc(N2CCNCC2)ccc1Nc1ncc(C(F)(F)F)c(NCCCN2CCCOC2=O)n1` [Example 46], for which the concentration for half-maximal inhibition (IC50) in the experiment on ULK kinase [1] fell in the range of 10 to 100 nM; with ULK kinase [2], 100 to 300 nM; with ULK kinase [3], 10 to 100 nM; on LRRK2 kinase it was 100 to 300 nM.

As for `CN1CCN(c2ccc(Nc3ncc(Cl)c(NCCCN4CCCOCC4=O)n3)c(C3CC3)c2)CC1` [Example 55], the IC50 fell in the range of 10 to 100 nM in the experiment on ULK kinase [1], 100 to 300 nM in the experiment on ULK kinase [3] and 100 to 300 nM at LRRK2 kinase.

With `CN1CCN(c2ccc(Nc3ncc(C(F)(F)F)c(NCCCN4CCCCC4=O)n3)c(C3CC3)c2)CC1` [Example 14], the half-inhibitory concentration (IC50) is 10 to 100 nM with ULK kinase [1], 10 to 100 nM in the experiment on ULK kinase [2], 10 to 100 nM in the experiment with ULK kinase [3] and 1 to 100 nM against LRRK2 kinase.

As for `CCc1cc(N2CC3CCC(C2)N3C)ccc1Nc1ncc(C(F)(F)F)c(NCCCN2CCOCCC2=O)n1` [Example 74], the IC50 in the experiment with ULK kinase [1] fell in the range of 10 to 100 nM; with ULK kinase [2], 10 to 100 nM; in the experiment with ULK kinase [3] it was 10 to 100 nM; against LRRK2 kinase it was 300 to 600 nM.

For the compound `CN1CCN(c2ccc(Nc3ncc(C(F)(F)F)c(NCCCN4CCCOC4=O)n3)c(C3CC3)c2)CC1` [Example 41], the IC50 fell in the range of 10 to 100 nM in the experiment with ULK kinase [1], 10 to 100 nM in the experiment on ULK kinase [2], 10 to 100 nM in the experiment on ULK kinase [3] and 1 to 100 nM against LRRK2 kinase.

As to `CCc1cc(N2CCN(C)CC2)ccc1Nc1ncc(C(F)(F)F)c(NCCCN2CCCOC2=O)n1` [Example 39], the IC50 in the experiment on ULK kinase [1] lay within 10 to 100 nM; in the experiment on ULK kinase [2], 10 to 100 nM; in the experiment with ULK kinase [3], 10 to 100 nM; on LRRK2 kinase, 1 to 100 nM.

Take `CN1CCN(c2ccc(Nc3ncc(C(F)(F)F)c(NCCCN4CCOCCC4=O)n3)c(C3CC3)c2)CC1` [Example 70]: the half-inhibitory concentration (IC50) in the experiment with ULK kinase [1] was in the range of 10 to 100 nM; in the experiment with ULK kinase [2], 10 to 100 nM; with ULK kinase [3] it was 10 to 100 nM; on LRRK2 kinase, 1 to 100 nM.

With `CN1CCN(c2ccc(Nc3ncc(C(F)(F)F)c(NCCCN4CCCOCC4=O)n3)c(C3CC3)c2)CC1` [Example 52], the IC50 in the experiment on ULK kinase [1] lay in the range of 10 to 100 nM; in the experiment with ULK kinase [3] it was 10 to 100 nM; on LRRK2 kinase, 1 to 100 nM.

In the case of `CCc1cc(N2CCN(C)CC2)c(F)cc1Nc1ncc(C(F)(F)F)c(NCCCN2CCOCCC2=O)n1` [Example 86], the IC50 lay within 10 to 100 nM in the experiment with ULK kinase [1], 100 to 300 nM with ULK kinase [2], 10 to 100 nM in the experiment on ULK kinase [3] and 1 to 100 nM against LRRK2 kinase.

On to `CCc1cc(N2CCNCC2)ccc1Nc1ncc(C(F)(F)F)c(NCCCN2CCOCCC2=O)n1` [Example 84], for which the IC50 with ULK kinase [1] is 10 to 100 nM; in the experiment on ULK kinase [2], 100 to 300 nM; in the experiment with ULK kinase [3] it was 10 to 100 nM; against LRRK2 kinase, 100 to 300 nM.

Turning to `O=C1OCCCN1CCCNc1nc(Nc2ccc(N3CCNCC3)cc2C2CC2)ncc1C(F)(F)F` [Example 99], the IC50 in the experiment with ULK kinase [1] lay in the range of 100 to 300 nM; with ULK kinase [2], 100 to 300 nM; with ULK kinase [3], 10 to 100 nM; against LRRK2 kinase it was 1 to 100 nM.

Source of the values: patent publication US11530206B2, “Phenylaminopyrimidine amide autophagy inhibitors and methods of use thereof” (Deciphera Pharmaceuticals, LLC, priority 2019, dated 2022).
